Measured values: ChEMBL document CHEMBL1149487, “A structure-guided approach to an orthogonal estrogen-receptor-based gene switch activated by ligands suitable for in vivo studies” (J Med Chem, 2006)
Values belong to the compound of their own block, whether it stands above or below them. Activity calls are given as the source filed them. No cut-off for these calls is given here.

What was measured:
[1] = Clearance in rat at 3 mg/kg, iv; assay type: ADME, organism-based; design: dose 3 mg/kg, route intravenous; settings: in vivo
Estrogen receptor [2] = molecular target: Estrogen receptor (Homo sapiens, UniProt P03372, G521R/L384M/M421G)
Chain of Estrogen receptor (Homo sapiens, UniProt P03372, G521R/L384M/M421G) (P03372 whole entry L384M/M421G/G521R): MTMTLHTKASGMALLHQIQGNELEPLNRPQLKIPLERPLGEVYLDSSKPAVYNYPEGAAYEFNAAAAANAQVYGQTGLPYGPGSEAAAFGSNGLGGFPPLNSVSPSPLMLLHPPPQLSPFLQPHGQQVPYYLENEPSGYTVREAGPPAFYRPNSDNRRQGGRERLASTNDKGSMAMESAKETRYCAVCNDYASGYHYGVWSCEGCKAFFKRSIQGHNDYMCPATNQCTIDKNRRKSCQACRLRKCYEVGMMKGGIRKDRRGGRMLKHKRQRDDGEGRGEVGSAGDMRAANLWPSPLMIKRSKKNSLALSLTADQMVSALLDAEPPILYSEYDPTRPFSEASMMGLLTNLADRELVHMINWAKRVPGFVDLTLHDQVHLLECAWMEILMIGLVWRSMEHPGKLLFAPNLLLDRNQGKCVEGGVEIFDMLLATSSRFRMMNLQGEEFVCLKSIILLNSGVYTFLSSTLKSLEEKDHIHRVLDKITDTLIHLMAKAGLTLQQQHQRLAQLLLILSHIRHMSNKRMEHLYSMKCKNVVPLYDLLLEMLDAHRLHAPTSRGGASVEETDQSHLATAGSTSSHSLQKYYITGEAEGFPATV

Estrogen receptor [3] = molecular target: T1, Estrogen receptor (Homo sapiens, UniProt P03372)
T1 sequence (P03372 whole entry): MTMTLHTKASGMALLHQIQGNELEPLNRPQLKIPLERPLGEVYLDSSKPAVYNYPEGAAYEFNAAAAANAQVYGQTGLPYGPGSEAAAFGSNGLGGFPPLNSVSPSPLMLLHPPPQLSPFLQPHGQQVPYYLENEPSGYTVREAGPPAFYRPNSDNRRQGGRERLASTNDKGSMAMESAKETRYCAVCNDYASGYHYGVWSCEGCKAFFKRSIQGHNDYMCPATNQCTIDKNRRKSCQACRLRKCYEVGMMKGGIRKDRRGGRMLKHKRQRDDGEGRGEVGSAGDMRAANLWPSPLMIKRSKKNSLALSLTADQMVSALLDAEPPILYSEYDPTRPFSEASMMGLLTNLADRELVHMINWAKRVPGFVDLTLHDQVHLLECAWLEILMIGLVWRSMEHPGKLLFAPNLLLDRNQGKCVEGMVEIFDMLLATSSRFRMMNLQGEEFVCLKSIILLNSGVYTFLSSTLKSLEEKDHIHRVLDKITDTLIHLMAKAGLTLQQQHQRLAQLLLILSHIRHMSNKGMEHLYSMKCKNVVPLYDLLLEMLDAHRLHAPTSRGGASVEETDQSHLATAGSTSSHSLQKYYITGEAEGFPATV
Description: Binding affinity to human ER alpha

[4] = Terminal half life in rat at 3 mg/kg, iv; assay type: ADME, organism-based; design: dose 3 mg/kg, route intravenous; settings: in vivo, read-out: beta t1/2 (converted)
Estrogen receptor beta [5] = molecular target: T2, Estrogen receptor beta (Homo sapiens, UniProt Q92731)
T2 sequence (Q92731 whole entry): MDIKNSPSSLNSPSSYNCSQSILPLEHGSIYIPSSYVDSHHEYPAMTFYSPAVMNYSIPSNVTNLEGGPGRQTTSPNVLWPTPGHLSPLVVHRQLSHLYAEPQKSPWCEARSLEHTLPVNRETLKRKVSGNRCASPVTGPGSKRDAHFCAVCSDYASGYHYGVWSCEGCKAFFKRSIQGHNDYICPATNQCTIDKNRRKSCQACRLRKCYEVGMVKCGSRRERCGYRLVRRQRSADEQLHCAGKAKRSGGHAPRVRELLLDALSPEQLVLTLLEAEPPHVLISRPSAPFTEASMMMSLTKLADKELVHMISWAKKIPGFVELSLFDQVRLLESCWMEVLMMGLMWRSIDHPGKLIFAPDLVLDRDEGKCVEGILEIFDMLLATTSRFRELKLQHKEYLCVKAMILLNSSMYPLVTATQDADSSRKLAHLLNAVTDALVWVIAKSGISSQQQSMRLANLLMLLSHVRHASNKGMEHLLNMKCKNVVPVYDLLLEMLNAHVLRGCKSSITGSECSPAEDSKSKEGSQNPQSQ

[6] = molecular target: T3, Estrogen receptor (Homo sapiens) (UniProt P03372); assay type: functional, cell-based; settings: HeLa
T3 sequence (whole entry): T1 sequence (P03372 whole entry)

Estrogen receptor [7] = molecular target: T1, Estrogen receptor; assay: Binding affinity to wild type ERalpha
[8] = Cmax in BALB/c mouse at 4 mg/kg, ip; assay type: ADME, organism-based; design: dose 4 mg/kg, route intraperitoneal; settings: in vivo
Estrogen receptor beta [9] = molecular target: T2, Estrogen receptor beta; assay: Binding affinity to human ER beta upto 10 uM

Compound: O=C1CCC2(Cc3ccccc3)Cc3cc(O)ccc3C2=C1c1ccc(OCCN2CCCCC2)cc1 (configuration not stated)
clearance [1]: 22 mL/min/kg
EC50 (Estrogen receptor [2]): 14 nM
IC50 (Estrogen receptor [3]): 380 nM
half-life [4]: 2 h
IC50 (Estrogen receptor beta [5]): 180 nM

Compound: O=C1CCC2(Cc3ccccc3)Cc3c(ccc4[nH]ncc34)C2=C1c1ccc(OCCN2CCCCC2)cc1 (configuration not stated)
EC50 (Estrogen receptor [2]): 300 nM
IC50 (Estrogen receptor [3]): 620 nM
IC50 (Estrogen receptor beta [5]): 130 nM

Compound: O=C1CCC2(Cc3ccccc3)Cc3cc(O)ccc3C2=C1c1ccc(O)cc1 (configuration not stated)
clearance [1]: 39 mL/min/kg
EC50 (Estrogen receptor [2]): 11 nM
IC50 (Estrogen receptor [3]): 220 nM
half-life [4]: 1.5 h
IC50 (Estrogen receptor beta [5]): 100 nM

Compound: O=C1CCC2(Cc3ccc(Cl)cc3)Cc3cc(O)ccc3C2=C1c1ccc(OCCN2CCCCC2)cc1 (configuration not stated)
EC50 (Estrogen receptor [2]): 41 nM
IC50 (Estrogen receptor [3]): 1100 nM
IC50 (Estrogen receptor beta [5]): 2200 nM
Cmax [8]: 500 nM

Compound: O=C1CCC2(Cc3ccccc3)Cc3cc(O)ccc3C2=C1c1ccc(OCCN2CCOCC2)cc1 (configuration not stated)
IC50 (Estrogen receptor [3]): 710 nM
IC50 (Estrogen receptor beta [5]): 230 nM

Compound: CN(C)CCOc1ccc(C2=C3c4ccc(O)cc4CC3(Cc3ccccc3)CCC2=O)cc1 (configuration not stated)
IC50 (Estrogen receptor [3]): 1200 nM
IC50 (Estrogen receptor beta [5]): 560 nM

Other lines, results leading:

IC50 (Estrogen receptor beta [5]): > 1000 nM
Compound: CC1=C2c3ccc4[nH]ncc4c3CC2(Cc2ccc(F)cc2)CCC1=O (configuration not stated)

IC50 (Estrogen receptor [3]): > 10000 nM
IC50 (Estrogen receptor beta [5]): 5800 nM
Compound: CC1=C2c3ccc4nn[nH]c4c3CC2(Cc2ccccc2)CCC1=O (configuration not stated)

IC50 (Estrogen receptor beta [5]): > 10000 nM
Compound: CC1=C2c3ccc4nn[nH]c4c3CC2(Cc2ccc(F)cc2)CCC1=O (configuration not stated)

IC50 (Estrogen receptor [3]): > 10000 nM
Activity [6]: inactive
IC50 (Estrogen receptor beta [5]): 1200 nM
Compound: CC1=C2c3ccc4[nH]ncc4c3CC2(Cc2ccccc2)CCC1=O (configuration not stated)

IC50 (Estrogen receptor [3]): > 10000 nM
IC50 (Estrogen receptor beta [5]): 1600 nM
Compound: CC1=C2c3ccc4[nH]ncc4c3CC2(Cc2cccc(F)c2)CCC1=O (configuration not stated)

IC50 (Estrogen receptor [3]): > 10000 nM
IC50 (Estrogen receptor beta [5]): > 10000 nM
Compound: O=C1C=C2c3ccc4[nH]ncc4c3CC2(Cc2ccccc2)CC1 (configuration not stated)

IC50 (Estrogen receptor [7]): 6800 nM
Compound: CC1=C2c3ccc(O)cc3CC2(Cc2ccc(Cl)cc2)CCC1=O (configuration not stated)

IC50 (Estrogen receptor [3]): 1500 nM
Compound: CC1=C2c3ccc(O)cc3CC2(Cc2ccccc2)CCC1=O (configuration not stated)

Activity (Estrogen receptor beta [9]): inactive
Compound: CC1=C2c3ccc4[nH]nnc4c3CC2(Cc2ccc(F)cc2)CCC1=O (configuration not stated)

IC50 (Estrogen receptor [3]): 3400 nM
IC50 (Estrogen receptor beta [5]): 560 nM
Compound: CC1=C2c3ccc4[nH]ncc4c3CC2(Cc2ccccc2F)CCC1=O (configuration not stated)
